In brackets after ≈: the same amount, converted by molar mass.
Columns and labels:
KBv200 cells = assay: Sensitizing effect of PA to conventional chemotherapeutic drugs (MTT); format: cell-based, human; details: for RF (Ctrl/S), Adr / RF (Ctrl/S), DDP / RF (Ctrl/S), Taxol / RF (Ctrl/S), Vin: KBv200, IC50 without sensitizer / with sensitizer 10 μg/mL
Protocol: (§1) The cells at logarithmic phase were collected and added into RPMI 1640 medium (containing 10% fetal bovine serum) to make cell suspensions. The cell suspension was added to 96-well plate at 100 μl per well, and the cell number was 2×10^3 (suspending cells) or 1×10^3 (adherent cells) per well. After inoculation, the suspending cells were adapted for half an hour on the plate and the adherent cells were cultivated to allow adhesion before the drugs were added. The control groups (Ctrl) were added with anti-tumor drugs but without PA. The drug concentration of each PA group was 10 μg/mL. The concentrations of chemotherapeutic drugs increased from 0.001 μg/mL to 20 μg/mL. There Were six parallel repeated wells for every concentration gradient. RPMI 1640 was added up to a finally volume of 200 μl per well. The cells were cultured at the condition of 37° C., saturated humidity, 5% CO2 for 68 hours. The MTT was determined and the IC50 was calculated as in example 4.
(§2) The formula of resistant factor: Resistant Factor (RF)=the IC50 without sensitizer/the IC50 with sensitizer.

MCF-7/Adr cells = assay: as above; format: cell-based, human; details: for RF (Ctrl/S), Adr / RF (Ctrl/S), DDP / RF (Ctrl/S), Taxol / RF (Ctrl/S), Vin: IC50 without sensitizer / with sensitizer 10 μg/mL
Protocol: as §1, §2

K562/Adr cells = assay: as above; format: cell-based, human; details: for RF (Ctrl/S), Adr / RF (Ctrl/S), DDP / RF (Ctrl/S), Taxol / RF (Ctrl/S), Vin: IC50 without sensitizer / with sensitizer 10 μg/mL
Protocol: as §1, §2

MCF-7/Adr [1] = assay: Growth inhibiting effect of PA on drug resistant cells (MTT); format: cell-based; details: Homo sapiens, NCI/ADR-RES, PA alone, read-out: IC50 growth inhibition
Protocol: (§3) Methods: 1×10^3 cells per well were inoculated onto a 96-well plate. PA was added to K562/Adr directly and to KBV200 and MCF-7/Adr after adhesion. The concentrations of the drugs were 0, 0.1, 0.5, 1, 5, 10, 20, 40, 80, 160 μg/mL. MTT was determined according to the method of example 2 and the IC50 was calculated. The experiment was repeated three times.

K562/Adr [2] = assay: as above; format: cell-based; details: Homo sapiens, PA alone, read-out: IC50 growth inhibition
Protocol: as §3

KBv200 [3] = assay: as above; format: cell-based; details: Homo sapiens; KBv200, PA alone; read-out: IC50 growth inhibition
Protocol: as §3

K562/Adr [4] = assay: MTT drug resistance determination to conventional chemotherapeutic drugs; format: cell-based, human
Source text: (§4) The following cell lines were used: K562 (human chronic myeloid leukemia cell line) and K562/Adr (a cell line with drug-resistance to chemotherapeutic drugs such as Adriamycin induced by a long-term exposure to a low dosage of Adriamycin); KB (human oral epithelia cell line) and KBv200 (a cell line with drug-resistance to chemotherapeutic drugs such as Vincristine induced by a long-term exposure to a low dosage of Vincristine); MCF-7 (human mammary cancer cell line) and MCF-7/Adr (a cell line with drug-resistance to chemotherapeutic drugs such as Adriamycin induced by a long-term exposure to a low dosage of Adriamycin). All the cell lines mentioned above were purchased from Institute of Hematology, Chinese Academy of Medical Sciences.
The multi-drug resistant cell line of K562/Adr is mainly characterized by the concurrency of multiple resistant mechanisms including the increased expression of P-gp and Bcl-2 family proteins, and the enhanced activity of glyoxalase I, etc. K562/Adr is resistant to Adriamycin 20 folds more than K562, and cross-resistant to Vincristine, Daunomycin, Mitoxantrone, Taxol, etc.
(§5) Half-inhibitory concentration (IC50) was calculated by the GraphPad Prism software (San Diego, Calif.). Drug reaction was analyzed by Sigmoldal non-linear regression model.
(§6) The cells at logarithmic phase were collected and added into RPMI 1640 medium (containing 10% fetal bovine serum) to prepare a cell suspension. Then the cell suspension was plated onto a 96-well plate at 100 μl per well (1×10^4 cell/well). Adriamycin, Vincristine, Taxol, cisplatin of different concentration gradients were directly added to the semi-suspending cells (K562 and K562/Adr). The adherent cells were cultured for 24 hours after inoculation so that they could adhere completely, and then the drugs mentioned above in different concentrations were added. There were six parallel repeated wells for every concentration gradient. The medium was added up to a final volume of 200 μl per well. The cells were cultured at the condition of 37° C., saturated humidity, 5% CO2 for 68 hours. 50 μl MTT (2 mg/mL) per well was added. The 96-well plate was centrifuged and the supernatant was removed. Then 120 μl DMSO per well was added and vibrated by vibrator. The OD value was determined at a wavelength of 590 nm by enzyme labeling instrument after the crystal was dissolved completely.
(§7) The calculating method: IC50=drug concentration when the inhibitory rate was 50%.
(§8) Drug resistant factor (RF)=the IC50 of the drug resistant cells/the IC50 of the sensitive cells.

MCF-7 = assay: as above; format: cell-based, human; details: Homo sapiens, MCF7, MCF-7, drug alone, 68 h, read-out: IC50
Source text: as §4, §5, §6, §7, §8

K562 = assay: as above; format: cell-based, human; details: Homo sapiens, K562, drug alone, 68 h, read-out: IC50
Source text: as §4, §5, §6, §7, §8

KB = assay: as above; format: cell-based, human; details: Homo sapiens, drug alone, 68 h, read-out: IC50
Source text: as §4, §5, §6, §7, §8

KBv200 [5] = assay: as above; format: cell-based, human
Source text: as §4
The multi-drug resistant cell line, of KBv200 is also mainly characterized by the concurrency of multiple resistant mechanisms including the increased expression of P-gp and Bcl-2 family proteins, and the enhanced activity of glyoxalase I, etc. KBv200 is resistant to Vincristine more than 100 folds in comparison with KB, and cross-resistant to […], Daunomycin, Mitoxantrone, Taxol, etc.
as §5, §6, §7, §8

MCF-7/Adr [6] = assay: as above; format: cell-based, human
Source text: as §4
Similarly, the multi-drug resistant cell line of MCF-7/Adr is also mainly characterized by the concurrency of multiple resistant mechanisms including the increased expression of P-gp and Bcl-2 family proteins, and the enhanced activity of glyoxalase I, etc.
as §5, §6, §7, §8

Compound | IC50 (MCF-7/Adr [1]) | IC50 (K562/Adr [2]) | RF (Ctrl/S), Adr (KBv200 cells) | RF (Ctrl/S), DDP (KBv200 cells) | RF (Ctrl/S), Taxol (KBv200 cells) | RF (Ctrl/S), Vin (KBv200 cells) | RF (Ctrl/S), Adr (MCF-7/Adr cells) | RF (Ctrl/S), DDP (MCF-7/Adr cells) | RF (Ctrl/S), Taxol (MCF-7/Adr cells) | RF (Ctrl/S), Vin (MCF-7/Adr cells) | RF (Ctrl/S), Adr (K562/Adr cells) | RF (Ctrl/S), DDP (K562/Adr cells) | RF (Ctrl/S), Taxol (K562/Adr cells) | RF (Ctrl/S), Vin (K562/Adr cells) | IC50 (KBv200 [3]) | other results
CCCCC1OC(=O)C2=C1CCC=C2 (single isomer, unassigned) [S1] | 37.4 ± 3.15 µg/mL (≈ 195 µM) | 21.4 ± 1.09 µg/mL (≈ 111 µM) | 10.27 | 8.063 | 5.245 | 13.03 | 11.34 | 3.376 | 2.685 | 11.12 | 34.99 | 5.116 | 24.04 | 6.214 | 38.7 ± 2.13 µg/mL (≈ 201 µM) | –
COc1cccc2c1C(=O)c1c(O)c3c(c(O)c1C2=O)C[C@@](O)(C(=O)CO)C[C@@H]3O[C@H]1C[C@H](N)[C@H](O)[C@H](C)O1 [Adr, doxorubicin] | – | – | – | – | – | – | – | – | – | – | – | – | – | – | – | IC50 (K562/Adr [4]; Homo sapiens, K562/Adr, drug alone, 68 h, MTT, read-out: IC50): 14.1 ± 0.35 µg/mL (≈ 25.9 µM); RF (drug resistant factor) (K562/Adr [4]; IC50 K562/Adr / IC50 K562): 65.39; Resistance of K562/Adr relative to K562 (K562/Adr [4]; description of cell line): 20 folds; IC50 (KBv200 cells; Homo sapiens, KBv200, drug alone, 68 h, read-out: IC50 of anti-tumor drug, Ctrl (without PA)): 4.39 ± 0.336 µg/mL; IC50 (MCF-7/Adr cells; Homo sapiens, NCI/ADR-RES, drug alone, 68 h, read-out: IC50 of anti-tumor drug, Ctrl (without PA)): 6.32 ± 0.775 µg/mL; IC50 (K562/Adr cells; Homo sapiens, drug alone, 68 h, read-out: IC50 of anti-tumor drug, Ctrl (without PA)): 7.67 ± 0.16 µg/mL; IC50 (MCF-7): 0.312 ± 0.143 µg/mL (≈ 0.574 µM); IC50 (K562): 0.215 ± 0.152 µg/mL (≈ 0.396 µM); IC50 (KB): 0.49 ± 0.176 µg/mL (≈ 0.902 µM); IC50 (KBv200 [5]; Homo sapiens, KBv200, drug alone, 68 h, MTT, read-out: IC50): 16.3 ± 1.03 µg/mL (≈ 30 µM); RF (drug resistant factor) (KBv200 [5]; IC50 KBv200 / IC50 KB): 33.22; IC50 (MCF-7/Adr [6]; Homo sapiens, NCI/ADR-RES, MCF-7/Adr, drug alone, 68 h, MTT, read-out: IC50): 19 ± 0.67 µg/mL (≈ 34.9 µM); RF (drug resistant factor) (MCF-7/Adr [6]; IC50 MCF-7/Adr / IC50 MCF-7): 59.07
CCCCC1OC(=O)c2cccc(O)c21 (stereo not shown) [S2] | 29.4 ± 2.8 µg/mL (≈ 143 µM) | 41.4 ± 3.53 µg/mL (≈ 201 µM) | 12.23 | 2.767 | 10.83 | 11.40 | 6.939 | 2.565 | 10.19 | 6.239 | 41.12 | 5.698 | 10.57 | 1.757 | 26.4 ± 1.98 µg/mL (≈ 128 µM) | –
CCC/C=C1\OC(=O)C2=CC3CC[C@]21C1C2=C(CC[C@@H]31)C(CCCC)OC2=O (stereo partly shown) [S8] | 43.2 ± 3.14 µg/mL (≈ 113 µM) | 31.3 ± 1.87 µg/mL (≈ 81.8 µM) | 3.623 | 4.375 | 3.87 | 7.326 | 5.639 | 6.407 | 1.612 | 9.597 | 1.796 | 2.722 | 3.506 | 7.918 | 38.6 ± 2.17 µg/mL (≈ 101 µM) | –

Second part, led by results:

IC50 (MCF-7/Adr [1]) | IC50 (K562/Adr [2]) | Compound | RF (Ctrl/S), Adr (KBv200 cells) | RF (Ctrl/S), DDP (KBv200 cells) | RF (Ctrl/S), Taxol (KBv200 cells) | RF (Ctrl/S), Vin (KBv200 cells) | RF (Ctrl/S), Adr (MCF-7/Adr cells) | RF (Ctrl/S), DDP (MCF-7/Adr cells) | RF (Ctrl/S), Taxol (MCF-7/Adr cells) | RF (Ctrl/S), Vin (MCF-7/Adr cells) | RF (Ctrl/S), Adr (K562/Adr cells) | RF (Ctrl/S), DDP (K562/Adr cells) | RF (Ctrl/S), Taxol (K562/Adr cells) | RF (Ctrl/S), Vin (K562/Adr cells) | IC50 (KBv200 [3]) | other results
34 ± 3.76 µg/mL (≈ 165 µM) | 39.2 ± 1.58 µg/mL (≈ 190 µM) | CCC/C=C1\OC(=O)C2=C1CCC1OC21 (single isomer, unassigned) [S3] | 18.97 | 7.188 | 2.548 | 6.169 | 4.153 | 6.708 | 3.232 | 4.008 | 13.93 | 2.239 | 5.740 | 4.899 | 27.4 ± 1.06 µg/mL (≈ 133 µM) | –
39.3 ± 2.14 µg/mL (≈ 175 µM) | 18.3 ± 0.762 µg/mL (≈ 81.6 µM) | CCC/C=C1\OC(=O)C2=C1CCC(O)C2O (single isomer, unassigned) [S5] | 16.95 | 3.208 | 13.88 | 2.088 | 5.02 | 4.508 | 15.62 | 6.934 | 6.264 | 2.104 | 2.117 | 3.109 | 29.8 ± 1.05 µg/mL (≈ 133 µM) | –
47.3 ± 2.12 µg/mL (≈ 249 µM) | 32.4 ± 1.13 µg/mL (≈ 170 µM) | CCC/C=C1\OC(=O)C2=C1CCC=C2 [S4] | 5.331 | 6.981 | 6.416 | 13.02 | 3.114 | 5.125 | 4.279 | 26.01 | 6.349 | 3.007 | 2.412 | 6.432 | 32.5 ± 1.03 µg/mL (≈ 171 µM) | –
44.5 ± 3.99 µg/mL (≈ 117 µM) | 29.8 ± 0.995 µg/mL (≈ 78.3 µM) | CCC/C=C1\OC(=O)C2=C1CC[C@H]1C3C=C4C(=O)O/C(=C\CCC)[C@@]4(CC3)C21 (stereo partly shown) [S6] | 2.297 | 2.622 | 8.72 | 3.342 | 12.59 | 2.539 | 3.932 | 13.22 | 6.249 | 1.371 | 1.641 | 1.833 | 35.2 ± 2.15 µg/mL (≈ 92.6 µM) | –
39.6 ± 4.61 µg/mL (≈ 104 µM) | 20.4 ± 2.61 µg/mL (≈ 53.7 µM) | CCC/C=C1\OC(=O)C2=C1CCC1C(CCC)C3(OC(=O)C4=C3CCC=C4)C21 (stereo not shown) [S7] | 2.405 | 5.939 | 5.179 | 7.376 | 14.12 | 6.516 | 7.023 | 3.831 | 8.257 | 0.653 | 1.550 | 3.963 | 36.9 ± 2.19 µg/mL (≈ 97 µM) | –
